Patent US10112926B2 (priority 2014, dated 2018)
Counter-ions that a name gives are not always drawn.

Molecular target: Vps34 (Homo sapiens (Human), UniProt Q8NEB9)
Conditions: read-out: Assay C VPS34 IC50

Chain of Vps34 (Q8NEB9 whole entry): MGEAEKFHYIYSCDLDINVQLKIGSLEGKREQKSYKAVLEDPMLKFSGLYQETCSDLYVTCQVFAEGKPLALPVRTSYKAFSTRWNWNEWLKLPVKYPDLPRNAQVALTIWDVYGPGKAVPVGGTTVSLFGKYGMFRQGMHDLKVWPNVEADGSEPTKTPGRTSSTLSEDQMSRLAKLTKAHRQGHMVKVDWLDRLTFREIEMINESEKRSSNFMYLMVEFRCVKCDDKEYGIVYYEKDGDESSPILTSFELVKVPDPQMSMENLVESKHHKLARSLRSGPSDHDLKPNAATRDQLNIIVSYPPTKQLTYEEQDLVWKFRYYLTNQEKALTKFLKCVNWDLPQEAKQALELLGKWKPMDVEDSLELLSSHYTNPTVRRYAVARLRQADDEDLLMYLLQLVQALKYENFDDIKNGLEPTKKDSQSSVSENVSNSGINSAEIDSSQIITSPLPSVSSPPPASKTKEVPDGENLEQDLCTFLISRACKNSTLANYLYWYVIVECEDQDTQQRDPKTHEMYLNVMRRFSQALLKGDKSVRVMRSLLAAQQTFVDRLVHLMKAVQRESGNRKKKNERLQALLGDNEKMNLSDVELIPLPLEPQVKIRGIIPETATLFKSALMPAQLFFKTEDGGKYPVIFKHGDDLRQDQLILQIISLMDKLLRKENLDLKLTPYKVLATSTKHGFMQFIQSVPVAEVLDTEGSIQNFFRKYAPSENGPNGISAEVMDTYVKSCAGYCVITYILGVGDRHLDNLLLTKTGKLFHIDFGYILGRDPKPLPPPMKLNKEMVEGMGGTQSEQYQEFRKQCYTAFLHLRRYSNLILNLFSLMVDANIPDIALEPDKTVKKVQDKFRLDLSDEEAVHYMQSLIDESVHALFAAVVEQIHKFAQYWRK

Structure (SMILES) | IC50 [µM]
Cc1cc(-c2cc(-c3cc(S(=O)(=O)NCC4(O)CCCCC4)ccc3C)cnc2N)on1 [Example 37.9] | > 10
Cc1cc(-c2cc(-c3cc(S(=O)(=O)N4CCOC[C@@H]4C)ccc3C)cnc2N)on1 [Example 19.5, (S)-5-(2-methyl-5-((3-methylmorpholino)sulfon-yl)phenyl)-3-(3-methylisoxazol-5-yl)pyridin-2-amine trifluoroacetic acid salt] | > 10
Cc1noc(-c2cc(-c3cc(S(=O)(=O)NCC(C)(C)O)c(Cl)cc3C)cnc2N)n1 [Example 89, 5-(6-Amino-5-(3-methyl-1,2,4-oxadiazol-5-yl)pyridin-3-yl)-2-chloro-N-(2-hydroxy-2-methylpropyl)-4-methylbenzenesulfonamide] | > 10
CCN1CCC[C@@H]1CNS(=O)(=O)c1ccc(C)c(-c2cnc(N)c(-c3cc(C)no3)c2)c1 [Example 37.27, (R)-3-(6-Amino-5-(3-methylisoxazol-5-yl)pyridin-3-yl)-N-((1-ethylpyrrolidin-2-yl)methyl)-4-methylbenzenesulfonamide] | > 10
Cc1ccc(S(=O)(=O)NCC(C)(C)O)cc1-c1cnc(N)c(-c2cnco2)c1 [Example 94a, 3-(6-amino-5-(oxazol-5-yl)pyridin-3-yl)-N-(2-hydroxy-2-methylpropyl)-4-methylbenzenesulfonamide] | > 10
Cc1ncc(-c2cc(-c3cc(S(=O)(=O)NCC(F)F)ccc3C)cnc2N)o1 [Example 104.10, 3-(6-amino-5-(2-methyloxazol-5-yl)pyridin-3-yl)-N-(2,2-difluoroethyl)-4-methylbenzenesulfon-amide] | 1.5
Cc1ccc(S(=O)(=O)NCC(C)(C)O)cc1-c1cnc(N)c(-c2cnn(C)c2C)c1 [Example 61, 3-(6-Amino-5-(1,5-dimethyl-1H-pyrazol-4-yl)pyridin-3-yl)-N-(2-hydroxy-2-methylpropyl)-4-methylbenzenesulfonamide] | > 10
Cc1cc(-c2cc(-c3cc(S(=O)(=O)NCCC4(O)CCCCC4)ccc3C)cnc2N)on1 [Example 37.30, 3-(6-Amino-5-(3-methylisoxazol-5-yl)pyridin-3-yl)-N-(2-(1-hydroxycyclohexyl)ethyl)-4-methylbenzenesulfonamide] | > 10
Cc1ncc(-c2cc(-c3cc(S(=O)(=O)NCC4(CO)COC4)ccc3C)cnc2N)s1 [Example 68, 3-(6-Amino-5-(2-methylthiazol-5-yl)pyridin-3-yl)-N-((3-(hydroxymethyl)oxetan-3-yl)methyl)-4-methylbenzenesulfonamide] | 8.4
Cc1cc(-c2cc(-c3cc(S(=O)(=O)NCC4(O)CCOCC4)ccc3C)cnc2N)on1 [Example 54, 3-(6-Amino-5-(3-methylisoxazol-5-yl)pyridin-3-yl)-N-((4-hydroxytetrahydro-2H-pyran-4-yl)methyl)-4-methylbenzenesulfonamide] | > 10
Cc1noc(-c2cc(-c3cc(S(=O)(=O)NC[C@H]4CCOC4)ccc3C)cnc2N)n1 [Example 86, (R)-3-(6-Amino-5-(3-methyl-1,2,4-oxadiazol-5-yl)pyridin-3-yl)-4-methyl-N-((tetrahydrofuran-3-yl)methyl)benzenesulfonamide] | > 10
Cc1cc(-c2cc(-c3cc(S(=O)(=O)N4CCCC(C)(O)CC4)ccc3C)cnc2N)on1 (centres unmarked) [Example 19.21, 1-((3-(6-amino-5-(3-methylisoxazol-5-yl)pyridin-3-yl)-4-methylphenyl)sulfonyl)-4-methylazepan-4-ol trifluoroacetic acid salt] | > 10
Cc1cc(-c2cc(-c3cc(S(=O)(=O)NCC4(O)CCCC4)ccc3C)cnc2N)on1 [Example 53, 3-(6-Amino-5-(3-methylisoxazol-5-yl)pyridin-3-yl)-N-((1-hydroxycyclopentyl)methyl)-4-methylbenzenesulfonamide] | > 10
Cc1ncc(-c2cc(-c3cc(S(=O)(=O)NCC4CC(O)C4)ccc3C)cnc2N)o1 (centres unmarked) [Example 104.1, 3-(6-amino-5-(2-methyloxazol-5-yl)pyridin-3-yl)-N-((3-hydroxycyclobutyl)methyl)-4-methylbenzenesulfon-amide] | 1.1
